# Experimental data from patent US20080090734A1, “DRUG SCREENING AND TARGET IDENTIFICATION USING SPR IMAGING OF TARGET PROTEIN ARRAYS” (The Trustees of California State University, priority 2006, published 2008).
# Experiments:
# Assay in all cases: Antibiotic susceptibility profile
# Type in all cases: cell-based, Acinetobacter baumannii
# Design in all cases: key: Resistance; Intermediate; Susceptible
# [1] = system: A. baumannii clinical isolate LAC 05
# Summary of the method: (§1)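 Clinical isolates came from nosocomial infections in New York City and Los Angeles and were tested only against antibiotics with established A. baumannii breakpoints. Each result was categorised as resistant (R), intermediate (I) or susceptible (S).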
# [2] = system: A. baumannii clinical isolate LAC 18
# Summary of the method: as §1
# [3] = system: A. baumannii clinical isolate LAC 12
# Summary of the method: as §1
# [4] = system: A. baumannii clinical isolate LAC 02
# Summary of the method: as §1
# [5] = system: A. baumannii clinical isolate LAC 06
# Summary of the method: as §1
# [6] = system: A. baumannii clinical isolate LAC 09
# Summary of the method: as §1
# [7] = system: A. baumannii clinical isolate NY H
# Summary of the method: as §1
# [8] = system: A. baumannii reference strain 17978; details: strain 17978 (ATCC)
# Summary of the method: (§2)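 R/I/S calls per drug; panel limited to agents having A. baumannii breakpoints; isolates from hospital-acquired infections, LA County and NYC.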
# [9] = system: A. baumannii clinical isolate LAC 11
# Summary of the method: as §1
# [10] = system: A. baumannii clinical isolate NY B
# Summary of the method: as §1
# [11] = system: A. baumannii clinical isolate LAC 04
# Summary of the method: as §1
# [12] = system: A. baumannii clinical isolate NY C
# Summary of the method: as §1
# [13] = system: A. baumannii clinical isolate NY G
# Summary of the method: as §1
# [14] = system: A. baumannii clinical isolate LAC 17
# Summary of the method: as §1
# [15] = system: A. baumannii clinical isolate LAC 07
# Summary of the method: as §1
# [16] = system: A. baumannii clinical isolate LAC 20
# Summary of the method: as §1
# [17] = system: A. baumannii clinical isolate LAC 14
# Summary of the method: as §1
# [18] = system: A. baumannii clinical isolate LAC 01
# Summary of the method: as §1
# [19] = system: A. baumannii clinical isolate LAC 15
# Summary of the method: as §1
# [20] = system: A. baumannii reference strain 19606; details: strain 19606 (ATCC)
# Summary of the method: as §2
# [21] = system: A. baumannii reference strain AYE
# Summary of the method: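 Clinical isolates from nosocomial infections in New York City and Los Angeles, tested alongside reference strains against only antibiotics having A. baumannii breakpoints; each scored R (resistant), I (intermediate) or S (susceptible).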
# [22] = system: A. baumannii clinical isolate LAC 08
# Summary of the method: as §1
# [23] = system: A. baumannii clinical isolate LAC 10
# Summary of the method: as §1
# [24] = system: A. baumannii clinical isolate LAC 13
# Summary of the method: as §1
# [25] = system: A. baumannii clinical isolate LAC 16
# Summary of the method: as §1
# [26] = system: A. baumannii clinical isolate LAC 03
# Summary of the method: as §1
# [27] = system: A. baumannii clinical isolate NY F
# Summary of the method: as §1
# [28] = system: A. baumannii reference strain 15839; details: strain 15839 (ATCC)
# Summary of the method: as §2
# [29] = system: A. baumannii clinical isolate NY E
# Summary of the method: as §1
# [30] = system: A. baumannii clinical isolate NY D
# Summary of the method: as §1
# [31] = system: A. baumannii clinical isolate NY A
# Summary of the method: as §1
# [32] = system: A. baumannii reference strain SDF
# Summary of the method: as §2
# [33] = system: A. baumannii clinical isolate LAC 19
# Summary of the method: as §1
SMILES,Antibiotic susceptibility [1],Antibiotic susceptibility [2],Antibiotic susceptibility [3],Antibiotic susceptibility [4],Antibiotic susceptibility [5],Antibiotic susceptibility [6],Antibiotic susceptibility [7],Antibiotic susceptibility [8],Antibiotic susceptibility [9],Antibiotic susceptibility [10],Antibiotic susceptibility [11],Antibiotic susceptibility [12],Antibiotic susceptibility [13],Antibiotic susceptibility [14],Antibiotic susceptibility [15],Antibiotic susceptibility [16],Antibiotic susceptibility [17],Antibiotic susceptibility [18],Antibiotic susceptibility [19],Antibiotic susceptibility [20],other results
"C[C@@H](O)[C@H]1C(=O)N2C(C(=O)O)=C(SCCN=CN)C[C@H]12 [IPM, Imipenem]",S,I,S,I,S,R,R,S,S,R,S,R,R,I,I,I,S,S,I,S,Antibiotic susceptibility [21]: R; Antibiotic susceptibility [22]: S; Antibiotic susceptibility [23]: R; Antibiotic susceptibility [24]: S; Antibiotic susceptibility [25]: I; Antibiotic susceptibility [26]: S; Antibiotic susceptibility [27]: R; Antibiotic susceptibility [28]: S; Antibiotic susceptibility [29]: R; Antibiotic susceptibility [30]: R; Antibiotic susceptibility [31]: R; Antibiotic susceptibility [32]: S; Antibiotic susceptibility [33]: I
"CC(C)(O/N=C(\C(=O)N[C@@H]1C(=O)N2C(C(=O)[O-])=C(C[n+]3ccccc3)CS[C@H]12)c1csc(N)n1)C(=O)O [CAZ, Ceftazidime]",I,R,R,R,S,R,R,S,R,R,R,R,R,R,R,R,R,R,R,S,Antibiotic susceptibility [21]: R; Antibiotic susceptibility [22]: I; Antibiotic susceptibility [23]: R; Antibiotic susceptibility [24]: R; Antibiotic susceptibility [25]: R; Antibiotic susceptibility [26]: R; Antibiotic susceptibility [27]: R; Antibiotic susceptibility [28]: R; Antibiotic susceptibility [29]: R; Antibiotic susceptibility [30]: R; Antibiotic susceptibility [31]: R; Antibiotic susceptibility [32]: S; Antibiotic susceptibility [33]: R
"COc1c(N2CCNC(C)C2)c(F)cc2c(=O)c(C(=O)O)cn(C3CC3)c12 (stereo not drawn) [GAT, Gatifloxacin]",R,R,R,R,S,R,R,S,R,R,S,R,R,R,R,R,R,R,R,S,Antibiotic susceptibility [21]: I; Antibiotic susceptibility [22]: R; Antibiotic susceptibility [23]: R; Antibiotic susceptibility [24]: R; Antibiotic susceptibility [25]: R; Antibiotic susceptibility [26]: R; Antibiotic susceptibility [27]: R; Antibiotic susceptibility [28]: R; Antibiotic susceptibility [29]: R; Antibiotic susceptibility [30]: R; Antibiotic susceptibility [31]: R; Antibiotic susceptibility [32]: S; Antibiotic susceptibility [33]: I
